Assay results from patent US20220089541A1, “Compounds for the Treatment of Kinase-Dependent Disorders” (Exelixis, Inc., priority 2019, published 2022).

Legend:
Mer = target: T1, Mer (Homo sapiens, UniProt Q12866); test: Mer autophosphorylation ELISA in transient transfected 293A cells; assay type: cell-based; conditions: 293A cells transfected with MERTK DNA, phospho-Mer ELISA, 1 h compound incubation
T1 construct: host or cells: 293A cells (Thermo Fisher #R70507)
T1 sequence (Q12866 21-999): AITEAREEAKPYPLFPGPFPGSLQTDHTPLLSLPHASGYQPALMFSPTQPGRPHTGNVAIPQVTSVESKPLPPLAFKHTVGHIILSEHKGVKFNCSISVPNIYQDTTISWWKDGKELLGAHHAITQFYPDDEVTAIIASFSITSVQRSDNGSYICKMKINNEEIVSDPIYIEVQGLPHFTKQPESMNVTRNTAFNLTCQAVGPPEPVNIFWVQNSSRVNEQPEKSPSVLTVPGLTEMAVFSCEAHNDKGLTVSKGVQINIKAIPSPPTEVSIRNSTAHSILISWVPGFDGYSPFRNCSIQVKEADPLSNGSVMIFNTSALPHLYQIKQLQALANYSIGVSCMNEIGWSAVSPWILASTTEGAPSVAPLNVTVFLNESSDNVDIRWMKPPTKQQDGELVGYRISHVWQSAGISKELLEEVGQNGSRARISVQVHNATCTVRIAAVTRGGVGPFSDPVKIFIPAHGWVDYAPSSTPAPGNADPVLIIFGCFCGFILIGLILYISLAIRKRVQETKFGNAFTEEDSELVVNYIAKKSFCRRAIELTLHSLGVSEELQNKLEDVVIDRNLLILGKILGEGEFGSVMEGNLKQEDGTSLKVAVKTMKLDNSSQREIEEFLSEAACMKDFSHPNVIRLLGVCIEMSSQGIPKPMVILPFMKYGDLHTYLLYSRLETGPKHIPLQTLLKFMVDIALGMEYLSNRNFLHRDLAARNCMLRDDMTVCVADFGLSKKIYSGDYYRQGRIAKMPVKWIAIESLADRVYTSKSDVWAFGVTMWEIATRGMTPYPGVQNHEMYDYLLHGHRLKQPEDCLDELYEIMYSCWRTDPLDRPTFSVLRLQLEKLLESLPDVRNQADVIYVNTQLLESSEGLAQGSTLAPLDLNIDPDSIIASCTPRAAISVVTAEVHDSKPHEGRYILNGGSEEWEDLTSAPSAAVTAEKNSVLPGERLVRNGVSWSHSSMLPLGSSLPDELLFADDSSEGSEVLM
Protocol: Example D: Mer Autophosphorylation ELISA in Transient Transfected 293A Cells
293A cells (Thermo Fisher #R70507) were seeded at 1.5×10^6 cells/well onto 100 mm dish (Greiner #664169), in DMEM (Thermo Fisher #11995-040) containing 10% FBS (Thermo Fisher #26140-079), 1% MEM NEAA (Thermo Fisher #11140-050), 1% GlutaMax (Thermo Fisher #35050-061), and 1% Penicillin Streptomycin (Thermo Fisher #15140-122). 293A cells were incubated at 37° C., 5% CO2 for 24 h and then transfected with 6 μg MERTK DNA (Genecopoeia #EX-Z8208-M02) using TransIT LT1 transfection reagent (Mirus-Bio #MIR2305). After 24 h incubation, the transfected 293A cells were seeded at 1×10^5 cells/well onto 96-well plates (Corning #3904) in DMEM growth medium overnight. Test compounds were serially diluted to produce an 8-point dose curve in fresh serum-free medium to a final concentration of 0.3% DMSO (vehicle) and added to the cells and incubated for 1 h. Cells were then immediately lysed with 150 μL of cold IX lysis buffer [20 mM Tris, 137 mM sodium chloride, 2 mM EDTA, 10% glycerol, l % NP-40 alternative, 1 mM activated sodium orthovanadate, 1 mM PefaBloc SC (Sigma-Aldrich #11429868001), protease/phosphatase inhibitor tablet (Thermo Fisher #A32959)]. Lysates were clarified by centrifugation and 50 μL/well added into the human phospho-Mer DuoSet IC ELISA (R&D Systems #DYC2579-2). Assay was performed according to manufacturer's instructions and sample phospho-Mer concentrations were extrapolated using human phospho-Mer control (R&D Systems #841793) as a standard. Positive control wells (100% activity) contained DMSO-treated cell lysates. Negative control wells (0% activity) contained reference inhibitor-treated cell lysates. IC50 values were calculated by nonlinear regression analysis using a 4-parameter logistic curve fit in ActivityBase XE (IDBS).

KDR = target: T2, KDR (Homo sapiens, UniProt P35968); test: KDR autophosphorylation ELISA in HUVEC cells; assay type: cell-based; conditions: VEGF165-stimulated, phospho-KDR ELISA, 1 h compound incubation
T2 construct: host or cells: HUVEC (human umbilical vein endothelial cells)
T2 sequence (P35968 20-1356): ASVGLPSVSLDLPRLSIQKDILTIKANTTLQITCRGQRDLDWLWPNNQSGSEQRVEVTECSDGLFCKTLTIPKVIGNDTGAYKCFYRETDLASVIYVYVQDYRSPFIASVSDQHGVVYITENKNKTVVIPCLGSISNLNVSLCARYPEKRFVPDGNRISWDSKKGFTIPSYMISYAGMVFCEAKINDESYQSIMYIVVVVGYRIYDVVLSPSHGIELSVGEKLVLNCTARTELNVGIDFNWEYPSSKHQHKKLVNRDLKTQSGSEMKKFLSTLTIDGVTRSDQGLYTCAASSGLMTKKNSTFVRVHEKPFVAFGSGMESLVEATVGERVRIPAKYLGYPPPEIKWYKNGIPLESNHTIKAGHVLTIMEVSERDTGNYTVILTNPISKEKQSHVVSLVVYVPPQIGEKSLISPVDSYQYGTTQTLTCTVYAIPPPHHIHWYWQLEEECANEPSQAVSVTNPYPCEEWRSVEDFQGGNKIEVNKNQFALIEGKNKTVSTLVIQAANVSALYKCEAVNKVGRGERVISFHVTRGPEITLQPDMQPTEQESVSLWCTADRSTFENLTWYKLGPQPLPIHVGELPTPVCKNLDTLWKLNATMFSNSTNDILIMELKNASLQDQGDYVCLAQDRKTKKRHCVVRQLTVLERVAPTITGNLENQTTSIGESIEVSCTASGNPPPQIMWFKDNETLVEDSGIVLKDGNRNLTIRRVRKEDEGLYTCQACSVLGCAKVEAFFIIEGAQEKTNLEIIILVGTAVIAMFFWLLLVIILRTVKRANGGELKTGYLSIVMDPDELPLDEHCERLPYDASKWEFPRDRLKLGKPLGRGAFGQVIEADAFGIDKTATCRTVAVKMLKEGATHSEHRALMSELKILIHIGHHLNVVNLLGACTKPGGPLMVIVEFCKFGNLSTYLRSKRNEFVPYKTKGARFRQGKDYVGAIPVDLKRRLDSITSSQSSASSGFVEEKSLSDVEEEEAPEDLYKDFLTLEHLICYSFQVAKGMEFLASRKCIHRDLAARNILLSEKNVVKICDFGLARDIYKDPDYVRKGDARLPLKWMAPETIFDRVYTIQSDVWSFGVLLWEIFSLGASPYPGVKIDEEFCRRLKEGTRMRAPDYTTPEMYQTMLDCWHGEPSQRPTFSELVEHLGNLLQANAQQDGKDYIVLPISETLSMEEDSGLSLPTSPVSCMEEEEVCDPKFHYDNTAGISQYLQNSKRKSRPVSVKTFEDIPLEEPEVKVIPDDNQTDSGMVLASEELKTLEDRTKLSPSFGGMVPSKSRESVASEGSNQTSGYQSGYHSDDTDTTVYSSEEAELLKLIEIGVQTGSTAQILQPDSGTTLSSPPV
Protocol: Example C: KDR Autophosphorylation ELISA in HUVEC Cells
umbilical vein endothelial cells or HUVEC (Lonza #C2519A) were seeded at 2×10^4 cells/well onto 96-well plates (Corning #3904), in EGM-2 growth medium (Lonza #CC-3162) containing 1% Penicillin Streptomycin (Thermo Fisher #15140-122). HUVEC cells were incubated at 37° C., 5% CO2 for 24 h and then starved for 24 h in serum-free EBM-2 basal medium (Lonza #CC-3156) containing 1% Penicillin Streptomycin. Test compounds were serially diluted to produce an 8-point dose curve in fresh serum-free medium to a final concentration of 0.3% DMSO (vehicle) and added to the cells and incubated for 1 h. Cells were then stimulated with 100 ng/mL recombinant human VEGF165 (R&D Systems #293-VE-500) for 5 min, washed with cold PBS, and immediately lysed with 130 μL of cold IX lysis buffer [20 mM Tris, 137 mM sodium chloride, 2 mM EDTA, 10% glycerol, 1% NP-40 alternative, 1 mM activated sodium orthovanadate, 1 mM PefaBloc SC (Sigma-Aldrich #11429868001), protease/phosphatase inhibitor tablet (Thermo Fisher #A32959)]. Lysates were collected and 100 μL/well added into the human phospho-KDR DuoSet IC ELISA (R&D Systems #DYC 1766-2). Assay was performed according to manufacturer's instructions and sample phospho-KDR concentrations were extrapolated using human phospho-KDR control (R&D Systems #841421) as a standard. Positive control wells (100% activity) contained VEGF165-stimulated, DMSO-treated cell lysates. Negative control wells (0% activity) contained non-stimulated cell lysates. IC50 values were calculated by nonlinear regression analysis using a 4-parameter logistic curve fit in ActivityBase XE (IDBS).

Row | Structure (SMILES) | IC50 (Mer) | IC50 (KDR)
1 | COc1cc2nccc(Oc3ccc(NC(=O)C4(C(=O)N(C)c5ccc(F)cc5)CC4)cc3)c2cc1OC [Compound 9, 1-N-[4-(6,7-Dimethoxyquinolin-4-yl)oxyphenyl]-1-N′-(4-fluorophenyl)-1-N′-methylcyclopropane-1,1-dicarboxamide] | > 0.3 µM | > 0.3 µM
2 | CNC(=O)c1cc2c(Oc3ncc(NC(=O)C4(C(=O)N(C)c5ccc(F)cc5)CC4)cc3F)ccnc2cc1OC [Compound 34, 1-N-[5-Fluoro-6-[7-methoxy-6-(methylcarbamoyl)quinolin-4-yl]oxypyridin-3-yl]-1-N′-(4-fluorophenyl)-1-N′-methylcyclopropane-1,1-dicarboxamide] | > 0.3 µM | > 0.3 µM
3 | COc1cc2nccc(Oc3ncc(NC(=O)C4(C(=O)N(C)c5ccc(F)cc5)CC4)cc3F)c2cc1C(N)=O [Compound 35, 1-N-[6-(6-Carbamoyl-7-methoxyquinolin-4-yl)oxy-5-fluoropyridin-3-yl]-1-N′-(4-fluorophenyl)-1-N′-methylcyclopropane-1,1-dicarboxamide] | > 0.3 µM | > 0.3 µM

Next, values leading:

Row | IC50 (Mer) | IC50 (KDR) | Structure (SMILES)
4 | > 0.3 µM | > 0.3 µM | COc1cc2nccc(Oc3ccc(NC(=O)C4(C(=O)N(C)c5ccc(F)cc5)CC4)cc3F)c2cc1OC [Compound 10, N-(4-((6,7-Dimethoxyquinolin-4-yl)oxy)-3-fluorophenyl)-N-(4-fluorophenyl)-N-methylcyclopropane-1,1-dicarboxamide]
5 | > 0.3 µM |  | COc1cc2nccc(Oc3ccc(N(C)C(=O)C4(C(=O)Nc5ccc(F)cc5)CC4)cc3F)c2cc1OC [Compound 51, 1-N′-[4-(6,7-Dimethoxyquinolin-4-yl)oxy-3-fluorophenyl]-1-N-(4-fluorophenyl)-1-N′-methylcyclopropane-1,1-dicarboxamide]
